Laboratory results reported in article PMC12162769, “Synthesis and Evaluation of a Hybrid Miltefosine-Silver Nanoparticle Complex: Synergistic Interaction with Benznidazole Against Trypanosoma cruzi” (Acta Parasitologica, 2025).
≈ marks a conversion by molar mass, not a printed value.

Key:
[1] = Cytotoxic activity, MTT assay; format: cell-based; settings: mouse, L929 fibroblast cells, read-out: IC50 L929 (cytotoxicity)
Method: The Trypanosoma cruzi ATCC 50825 reference strain and the L929 mouse fibroblast cell line (American Type Culture Collection, USA) used in this study were obtained from the Parasite Bank of […] Bayar University Faculty of Medicine. Fibroblasts preserved in liquid nitrogen were treated with RPMI-1640 and passaged into RPMI-1640 medium containing 10% FBS (fetal bovine serum). The cells were incubated at 37 °C with 5% CO2 for 48 h. The number and viability of proliferating cells were determined using Trypan Blue staining and a hemocytometer. A 100 μL cell suspension containing 10^5 cells/mL was distributed into 96-well microplates. Serial dilutions of the […] suspension (final concentration range: 5000-39 μg/mL), miltefosine (final concentration range: 512-0.125 μg/mL), and benznidazole (final concentration range: 640-0.60 μg/mL) were prepared in a separate microplate and transferred to the microplates containing the cells. The plates were incubated at 37 °C with 5% CO2 for 48 h. […] IC50 values indicating cytotoxic activity were calculated using GraphPad Prism 8.4.2 software. The cytotoxic activity tests were repeated three times on different days.

[2] = tested on: T. cruzi ATCC 50825 strain epimastigotes; test: Minimum parasiticidal concentration (MPC), motility and morphology under inverted microscope; format: cell-based, Trypanosoma cruzi
[3] = tested on: T. cruzi ATCC 50825 strain epimastigotes; test: Antitrypanosomal activity, broth microdilution with MTT viability (IC50); format: cell-based, Trypanosoma cruzi; settings: for SI (selectivity index): IC50 fibroblasts (L929) / IC50 T. cruzi epimastigotes; for IC50: Trypanosoma cruzi
Method: The Trypanosoma cruzi ATCC 50825 reference strain and the L929 mouse fibroblast cell line (American Type Culture Collection, USA) used in this study were obtained from the Parasite Bank of […] Bayar University Faculty of Medicine. […] For the determination of antitrypanosomal activity, 100 μL of RPMI-1640 medium was distributed into each well of sterile, flat-bottom, 96-well microplates. Serial dilutions of the hybrid NP complex were prepared in the range of 2500-19.5 μg/mL, miltefosine in the range of 128-1 μg/mL, and benznidazole in the range of 320-0.30 μg/mL. […] The morphological structure and motility of the epimastigotes in all wells were observed under an inverted microscope. The lowest concentration of the active substance at which all parasites were immobile and their morphology was disrupted was determined as the minimum parasiticidal concentration (MPC). […] Absorbance values were measured at 570 nm using a Thermo Varioskan model spectrophotometer (USA). IC50 values indicating antitrypanosomal activity were calculated using GraphPad Prism 8.4.2 software. Efficacy tests were repeated three times on different days.

T. cruzi trypomastigote = tested on: T. cruzi trypomastigote; design: method as in Gulin et al. (2022) [17]; settings: trypomastigote forms; ref Gulin et al. (2022) [17]; cited from earlier work
T. cruzi amastigote = tested on: T. cruzi amastigote; design: method as in Gulin et al. (2022) [17]; settings: amastigote forms; ref Gulin et al. (2022) [17]; cited from earlier work
[4] = ATCC50825, 24 h, 24 h, epimastigotes
[5] = ATCC50825, 48 h, 48 h, epimastigotes
[6] = ATCC50825, 72 h, 72 h, epimastigotes

SMILES	IC50 at 24 h [1] [µg/mL]	IC50 at 48 h [1] [µg/mL]	IC50 at 72 h [1] [µg/mL]	MPC (minimum parasiticidal concentration) ([2]; 24 h) [µg/mL]	MPC (minimum parasiticidal concentration) ([2]; 48 h) [µg/mL]	MPC (minimum parasiticidal concentration) ([2]; 72 h) [µg/mL]	SI (selectivity index) ([3]; 24 h)	SI (selectivity index) ([3]; 48 h)	SI (selectivity index) ([3]; 72 h)	IC50 [3, 4] [µg/mL]	IC50 [3, 5] [µg/mL]	IC50 [3, 6] [µg/mL]	IC50 (T. cruzi trypomastigote) [nM]	IC50 (T. cruzi amastigote) [nM]	IC50 T. cruzi ([3]; 72 h, epimastigotes) [µg/mL]	Selectivity (SI) as worded ([3]; over 24, 48 and 72 h, L929 vs T. cruzi epimastigotes)
O=C(Cn1ccnc1[N+](=O)[O-])NCc1ccccc1 [Benznidazole]	1010 (≈ 3880 µM)	822 (≈ 3160 µM)	807 (≈ 3100 µM)	155	155	77.5	15	18.2	23	67.1 (≈ 258 µM)	45 (≈ 173 µM)	34.5 (≈ 133 µM)				
CCCCCCCCCCCCCCCCOP(=O)([O-])OCC[N+](C)(C)C [Miltefosine]	38 (≈ 93.4 µM)	33.5 (≈ 82.2 µM)	27 (≈ 66.2 µM)	128	128	64	1.5	2.2	4.2	26.2 (≈ 64.2 µM)	15 (≈ 36.8 µM)	6.42 (≈ 15.8 µM)	550	480	6.42 (≈ 15.8 µM)	> 1
